According to US4145444A, “Anti-inflammatory agent of benzoyl derivative” (priority 1977, dated 1979):
Where two headings read alike, the source gives them in different places.

Key:
male mice [1] = experiment: Analgesic effect: painful stretchings following intraperitoneal 0.7% acetic acid; conditions: Mus musculus, po, read-out: Analgesic: percentage diminition of times of painful stretching
Procedure: Each sample was orally administered in the dosage of 100 mg/kg before injection of acetic acid.

in vivo = conditions: mouse, in vivo, po
Procedure: (§1) Each sample was dissolved in olive oil or dispersed in 1% Tween 20 aqueous solution.

hind paws of male rats = experiment: Anti-inflammatory effect: acute carragheenin edema method; format: in vivo; conditions: for inhibition in vivo at 100 mg/kg: read-out: Anti-inf.: edema inhibition rate; for anti-inflammatory effect, inhibition rate (ED50), in words: rat, in vivo
Procedure: The edema was induced by subcutaneous injection of 1% carragheenin suspension in saline to the hind paws of male rats weighting 150 to 180 g. Each sample was orally given at the dosage of 100 mg/kg just before the inoculation of carragheenin.

thrombus = experiment: Inhibiting effect on thrombosis (by-pass between left juglar vein and right carotid artery, silk thread); format: in vivo, SD type male rates; conditions: Rattus norvegicus, read-out: Thrombosis inh.: thrombosis inhibition rate
Method in brief: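 Arteriovenous shunt with silk thread and heparin saline, run as three successive 15-min circulations, with thrombus wet weight measured on the thread each time. Compound given orally in carboxymethyl cellulose suspension at 100 mg/kg 5 h before the first circulation. Inhibition rate derived against control circulations.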

platelet = experiment: Blood platelet aggregation inhibiting effect (collagen-induced); format: cell-based, rabbits; conditions: Oryctolagus cuniculus, Platelet; 10^-4 mole, collagen inducer, rabbit PRP; read-out: Blood platelet agg. inh.: percentage inhibition of platelet aggregation
Excerpt: Male rabbits (Japan original white strain 3.3 to 3.6 kg) were anesthetized with Thiopental sodium and blood was sampled from the carotid artery.

[2] = Chronic inflammation (adjuvant-induced arthritis): body weight gain; format: in vivo, female rats of Sprague Drawley strain
Procedure: (§2) The effects of 1 4-n-butyl benzophenone and 2 4-n-butyl-2'-fluorobenzophenone against adjuvant-induced arthritis were studied.
(§3) For the study, adult female rats of Sprague Drawley strain weighing approximately 200 g were used. All rats received 0.1 ml of a suspension of dry heat-killed tubercle bacilli (human strains, commercial product of Difco Co.) in liquid paraffin (5 mg/ml, w/v) by a single intradermal injection into the tail.
The treatment of the animals by the test compounds were started fourteen days after injection of the adjuvant when arthritis developed sufficiently accompanying edema and erythema in paws. […] […] Phenylbutazone was used as the reference drug.
(§4) Evaluations were made using the following parameters.

[3] = test system: adjuvant-induced arthritis; experiment: Chronic inflammation (adjuvant-induced arthritis): reduction in edema of the hind paws; format: in vivo, female rats of Sprague Drawley strain
Procedure: as §2, §3
The treatment of the animals by the test compounds were started fourteen days after injection of the adjuvant when arthritis developed sufficiently accompanying edema and erythema in paws. Each compound was orally given to animals daily for ten days. […] Phenylbutazone was used as the reference drug.
as §4
(2) Relative reduction in edema of the hind paws.

male mice [4] = experiment: in vivo; conditions: oral, male mice, within 72 hours (Table 2)
Procedure: as §1

[5] = Rattus norvegicus, 100 mg/kg oral, carragheenin edema, male rats (Table 2)
[6] = 100 mg/kg oral, 5 hours before first blood circulation, rats

Cc1cc(C)c(C(=O)c2ccccc2C)c(C)c1 [Active ingredient No. 3]
inhibition in vivo at 100 mg/kg (male mice [1]): 11.3%
LD50 at 72 h (in vivo): 1500 mg/kg
inhibition in vivo at 100 mg/kg (hind paws of male rats; [5]): 40%
ED50 (hind paws of male rats; Rattus norvegicus, oral, carragheenin edema, male rats (Table 2), read-out: 50% inhibition ED50 (values in brackets)): 290 mg/kg
inhibition in vivo at 100 mg/kg (thrombus; [6]): 38.3%
inhibition at 100 µM (platelet): 17.3%

CCCCCCc1ccc(C(=O)c2ccc(CCCC)cc2)cc1 [Active ingredient No. 5]
inhibition in vivo at 100 mg/kg (male mice [1]): 12.1%
LD50 at 72 h (in vivo): 5000 mg/kg
inhibition in vivo at 100 mg/kg (hind paws of male rats; [5]): 46.3%
inhibition in vivo at 100 mg/kg (thrombus; [6]): 20.3%
inhibition at 100 µM (platelet): 15.3%

CCCCCCc1ccc(C(=O)c2ccc(CCC)cc2)cc1 [Active ingredient No. 6]
inhibition in vivo at 100 mg/kg (male mice [1]): 14.5%
LD50 at 72 h (in vivo): 5000 mg/kg
inhibition in vivo at 100 mg/kg (hind paws of male rats; [5]): 44.2%
inhibition in vivo at 100 mg/kg (thrombus; [6]): 15.9%
inhibition at 100 µM (platelet): 17.8%

CCCCc1ccc(C(=O)c2ccccc2F)cc1 [Active ingredient No. 8, 4-n-butyl-2'-fluorobenzophenone]
anti-inflammatory effect, inhibition rate (ED50), in words (hind paws of male rats): especially high inhibition rate (ED50)
Body weight gain, average, 0 days ([2]; 50 mg/kg/day oral): 222.6
Body weight gain, average, 6 days ([2]; 50 mg/kg/day oral): 223.0
Body weight gain, average, 10 days ([2]; 50 mg/kg/day oral): 232.0
Body weight gain, average, 0 days ([2]; 100 mg/kg/day oral): 211.8
Body weight gain, average, 6 days ([2]; 100 mg/kg/day oral): 205.8
Body weight gain, average, 10 days ([2]; 100 mg/kg/day oral): 214.4
Relative volume ratio of swelling in hind paws, average, 6 days ([3]; 50 mg/kg/day oral): 0.74
Relative volume ratio of swelling in hind paws, average, 10 days ([3]; 50 mg/kg/day oral): 0.76
Relative volume ratio of swelling in hind paws, average, 6 days ([3]; 100 mg/kg/day oral): 0.78
Relative volume ratio of swelling in hind paws, average, 10 days ([3]; 100 mg/kg/day oral): 0.73

CCCCc1ccc(C(=O)c2ccccc2)cc1 [Active ingredient No. 19, 4-n-butyl benzophenone]
anti-inflammatory effect, inhibition rate (ED50), in words (hind paws of male rats): especially high inhibition rate (ED50)
Body weight gain, average, 0 days ([2]; 100 mg/kg/day oral): 229.2
Body weight gain, average, 6 days ([2]; 100 mg/kg/day oral): 217.5
Body weight gain, average, 10 days ([2]; 100 mg/kg/day oral): 218.2
Body weight gain, average, 0 days ([2]; 200 mg/kg/day oral): 214.1
Body weight gain, average, 6 days ([2]; 200 mg/kg/day oral): 213.3
Body weight gain, average, 10 days ([2]; 200 mg/kg/day oral): 220.1
Relative volume ratio of swelling in hind paws, average, 6 days ([3]; 100 mg/kg/day oral): 0.97
Relative volume ratio of swelling in hind paws, average, 10 days ([3]; 100 mg/kg/day oral): 1.02
Relative volume ratio of swelling in hind paws, average, 6 days ([3]; 200 mg/kg/day oral): 0.76
Relative volume ratio of swelling in hind paws, average, 10 days ([3]; 200 mg/kg/day oral): 0.75

CCCCC1C(=O)N(c2ccccc2)N(c2ccccc2)C1=O [Phenylbutazone, reference compound]
Body weight gain, average, 0 days ([2]; 50 mg/kg/day oral): 215.6
Body weight gain, average, 6 days ([2]; 50 mg/kg/day oral): 207.7
Body weight gain, average, 10 days ([2]; 50 mg/kg/day oral): 214.3
Relative volume ratio of swelling in hind paws, average, 6 days ([3]; 50 mg/kg/day oral): 0.75
Relative volume ratio of swelling in hind paws, average, 10 days ([3]; 50 mg/kg/day oral): 0.75

COc1ccc(C(=O)c2ccccc2)cc1 [compound 28]
inhibition in vivo at 100 mg/kg (male mice [1]): 4.2%
Acute toxicity LD50 (male mice [4]): > 10000 mg/kg
inhibition in vivo at 100 mg/kg (hind paws of male rats; Rattus norvegicus, po): 44.1%
inhibition in vivo at 100 mg/kg (thrombus; po, 5 h): 7.3%
inhibition at 100 µM (platelet): 20.4%

CCc1ccc(C(=O)c2ccc(CC)cc2)cc1 [compound 106]
inhibition in vivo at 100 mg/kg (male mice [1]): 7.3%
inhibition in vivo at 100 mg/kg (hind paws of male rats; [5]): 26.4%
inhibition in vivo at 100 mg/kg (thrombus; [6]): 20.2%
inhibition at 100 µM (platelet): 20.3%

CCc1ccc(C(=O)c2ccc(OC)cc2)cc1 [compound 107]
inhibition in vivo at 100 mg/kg (male mice [1]): 13.2%
inhibition in vivo at 100 mg/kg (hind paws of male rats; Rattus norvegicus, po): 20.3%
inhibition in vivo at 100 mg/kg (thrombus; [6]): 19.6%
inhibition at 100 µM (platelet): 20.3%

Cc1cc(C)c(C(=O)c2ccc(O)cc2)c(C)c1 [compound 108]
inhibition in vivo at 100 mg/kg (male mice [1]): 3.1%
inhibition in vivo at 100 mg/kg (hind paws of male rats; [5]): 10.5%
inhibition in vivo at 100 mg/kg (thrombus; [6]): 34.7%
inhibition at 100 µM (platelet): 28.4%

O=C(c1ccccc1)c1ccc(O)cc1 [compound 109]
inhibition in vivo at 100 mg/kg (male mice [1]): 2.6%
inhibition in vivo at 100 mg/kg (hind paws of male rats; [5]): 12.7%
inhibition in vivo at 100 mg/kg (thrombus; [6]): 20.3%
inhibition at 100 µM (platelet): 13.7%

CCCc1ccc(C(=O)c2ccc(CCC)cc2)cc1 [compound 110]
inhibition in vivo at 100 mg/kg (male mice [1]): 10.5%
inhibition in vivo at 100 mg/kg (hind paws of male rats; [5]): 17%
inhibition in vivo at 100 mg/kg (thrombus; [6]): 18.6%
inhibition at 100 µM (platelet): 20.5%

CCCCCc1ccc(C(=O)c2ccc(CCCCC)cc2)cc1 [compound 111]
inhibition in vivo at 100 mg/kg (male mice [1]): 11.3%
inhibition in vivo at 100 mg/kg (hind paws of male rats; [5]): 20.6%
inhibition in vivo at 100 mg/kg (thrombus; [6]): 17.3%
inhibition at 100 µM (platelet): 10.3%

CCCc1ccc(C(=O)c2ccc(CC)cc2)cc1 [compound 112]
inhibition in vivo at 100 mg/kg (male mice [1]): 6.7%
inhibition in vivo at 100 mg/kg (hind paws of male rats; [5]): 14.1%
inhibition in vivo at 100 mg/kg (thrombus; [6]): 15.5%
inhibition at 100 µM (platelet): 11.8%

O=C(c1ccccc1)c1ccccc1C(=O)c1ccccc1 [compound 113]
inhibition in vivo at 100 mg/kg (male mice [1]): 14.5%
inhibition in vivo at 100 mg/kg (hind paws of male rats; [5]): 38.7%
inhibition in vivo at 100 mg/kg (thrombus; [6]): 30.4%
inhibition at 100 µM (platelet): 25.8%

O=C(c1ccc(F)cc1)c1ccc(F)cc1 [compound 114]
inhibition in vivo at 100 mg/kg (male mice [1]): 18.3%
inhibition in vivo at 100 mg/kg (hind paws of male rats; [5]): 33.2%
inhibition in vivo at 100 mg/kg (thrombus; [6]): 31.1%
inhibition at 100 µM (platelet): 26.8%

O=C(c1ccc(F)cc1)c1ccccc1Cl [compound 115]
inhibition in vivo at 100 mg/kg (male mice [1]): 11.8%
inhibition in vivo at 100 mg/kg (hind paws of male rats; [5]): 14.5%
inhibition in vivo at 100 mg/kg (thrombus; [6]): 27.5%
inhibition at 100 µM (platelet): 25.4%
